Test results taken from patent US6994956B2, “Method for assaying enzyme activity” (Bayer Pharmaceuticals Corporation, priority 2003, dated 2006).

Tests used:
[1] = biological target: farnesyl-diphosphate synthase (FPPS) (Homo sapiens, UniProt P14324); conditions: FPPS (25 ng), incubated for 2 hours, conditions of FIG. 4
Procedure: Time course and protein dependence of farnesyl-diphosphate synthase (FPPS)-produced product partitioning into the organic phase. FPPS was incubated at varying concentrations and times at room temperature with 5 μM geranyl pyrophosphate (GPP) and 5 μM IPP (0.0125 μCi; [1-^14C]isopentenyl pyrophosphate) in a buffer containing 25 mM HEPES (pH 7.5), 1 mM DTT, and 1 mM MgCl2 in a total volume of 40 μL. The reaction was terminated by the addition of 10 μL of 5% phosphoric acid, followed by 50 μL Microscint™-CAT. The mix was allowed to incubate two hours prior to data acquisition. […]
A typical 384-well density reaction is partitioned with the following proportion of reagents: 40 μL enzyme assay inhibitor test mix containing FPP synthetase, substrates, test compounds, and buffer components is incubated at room temperature to generate farnesyl diphosphate. […] Enzyme activity is proportional to the radioactivity in the organic phase as determined by liquid scintillation counting (LSC). This radioactivity corresponds to products of acid treatment of the enzyme reaction, farnesol and nerolidol, as determined by LSC of authentic [1,2-^14C]trans, trans farnesol. […] The theoretical signal to background of the assay is established by comparing CPMs in the PPSF using equimolar amounts and equal amounts of radioactivity of radiolabeled substrate and product. […]

[2] = biological target: fatty acid synthase (FAS) (Homo sapiens, UniProt P49327); test: Phase partition assay of fatty acid synthase activity; assay type: biochemical; conditions: FAS (35 ng), incubated for 90 minutes, conditions of FIG. 1
Chain of fatty acid synthase (FAS) (P49327 whole entry, species assumed): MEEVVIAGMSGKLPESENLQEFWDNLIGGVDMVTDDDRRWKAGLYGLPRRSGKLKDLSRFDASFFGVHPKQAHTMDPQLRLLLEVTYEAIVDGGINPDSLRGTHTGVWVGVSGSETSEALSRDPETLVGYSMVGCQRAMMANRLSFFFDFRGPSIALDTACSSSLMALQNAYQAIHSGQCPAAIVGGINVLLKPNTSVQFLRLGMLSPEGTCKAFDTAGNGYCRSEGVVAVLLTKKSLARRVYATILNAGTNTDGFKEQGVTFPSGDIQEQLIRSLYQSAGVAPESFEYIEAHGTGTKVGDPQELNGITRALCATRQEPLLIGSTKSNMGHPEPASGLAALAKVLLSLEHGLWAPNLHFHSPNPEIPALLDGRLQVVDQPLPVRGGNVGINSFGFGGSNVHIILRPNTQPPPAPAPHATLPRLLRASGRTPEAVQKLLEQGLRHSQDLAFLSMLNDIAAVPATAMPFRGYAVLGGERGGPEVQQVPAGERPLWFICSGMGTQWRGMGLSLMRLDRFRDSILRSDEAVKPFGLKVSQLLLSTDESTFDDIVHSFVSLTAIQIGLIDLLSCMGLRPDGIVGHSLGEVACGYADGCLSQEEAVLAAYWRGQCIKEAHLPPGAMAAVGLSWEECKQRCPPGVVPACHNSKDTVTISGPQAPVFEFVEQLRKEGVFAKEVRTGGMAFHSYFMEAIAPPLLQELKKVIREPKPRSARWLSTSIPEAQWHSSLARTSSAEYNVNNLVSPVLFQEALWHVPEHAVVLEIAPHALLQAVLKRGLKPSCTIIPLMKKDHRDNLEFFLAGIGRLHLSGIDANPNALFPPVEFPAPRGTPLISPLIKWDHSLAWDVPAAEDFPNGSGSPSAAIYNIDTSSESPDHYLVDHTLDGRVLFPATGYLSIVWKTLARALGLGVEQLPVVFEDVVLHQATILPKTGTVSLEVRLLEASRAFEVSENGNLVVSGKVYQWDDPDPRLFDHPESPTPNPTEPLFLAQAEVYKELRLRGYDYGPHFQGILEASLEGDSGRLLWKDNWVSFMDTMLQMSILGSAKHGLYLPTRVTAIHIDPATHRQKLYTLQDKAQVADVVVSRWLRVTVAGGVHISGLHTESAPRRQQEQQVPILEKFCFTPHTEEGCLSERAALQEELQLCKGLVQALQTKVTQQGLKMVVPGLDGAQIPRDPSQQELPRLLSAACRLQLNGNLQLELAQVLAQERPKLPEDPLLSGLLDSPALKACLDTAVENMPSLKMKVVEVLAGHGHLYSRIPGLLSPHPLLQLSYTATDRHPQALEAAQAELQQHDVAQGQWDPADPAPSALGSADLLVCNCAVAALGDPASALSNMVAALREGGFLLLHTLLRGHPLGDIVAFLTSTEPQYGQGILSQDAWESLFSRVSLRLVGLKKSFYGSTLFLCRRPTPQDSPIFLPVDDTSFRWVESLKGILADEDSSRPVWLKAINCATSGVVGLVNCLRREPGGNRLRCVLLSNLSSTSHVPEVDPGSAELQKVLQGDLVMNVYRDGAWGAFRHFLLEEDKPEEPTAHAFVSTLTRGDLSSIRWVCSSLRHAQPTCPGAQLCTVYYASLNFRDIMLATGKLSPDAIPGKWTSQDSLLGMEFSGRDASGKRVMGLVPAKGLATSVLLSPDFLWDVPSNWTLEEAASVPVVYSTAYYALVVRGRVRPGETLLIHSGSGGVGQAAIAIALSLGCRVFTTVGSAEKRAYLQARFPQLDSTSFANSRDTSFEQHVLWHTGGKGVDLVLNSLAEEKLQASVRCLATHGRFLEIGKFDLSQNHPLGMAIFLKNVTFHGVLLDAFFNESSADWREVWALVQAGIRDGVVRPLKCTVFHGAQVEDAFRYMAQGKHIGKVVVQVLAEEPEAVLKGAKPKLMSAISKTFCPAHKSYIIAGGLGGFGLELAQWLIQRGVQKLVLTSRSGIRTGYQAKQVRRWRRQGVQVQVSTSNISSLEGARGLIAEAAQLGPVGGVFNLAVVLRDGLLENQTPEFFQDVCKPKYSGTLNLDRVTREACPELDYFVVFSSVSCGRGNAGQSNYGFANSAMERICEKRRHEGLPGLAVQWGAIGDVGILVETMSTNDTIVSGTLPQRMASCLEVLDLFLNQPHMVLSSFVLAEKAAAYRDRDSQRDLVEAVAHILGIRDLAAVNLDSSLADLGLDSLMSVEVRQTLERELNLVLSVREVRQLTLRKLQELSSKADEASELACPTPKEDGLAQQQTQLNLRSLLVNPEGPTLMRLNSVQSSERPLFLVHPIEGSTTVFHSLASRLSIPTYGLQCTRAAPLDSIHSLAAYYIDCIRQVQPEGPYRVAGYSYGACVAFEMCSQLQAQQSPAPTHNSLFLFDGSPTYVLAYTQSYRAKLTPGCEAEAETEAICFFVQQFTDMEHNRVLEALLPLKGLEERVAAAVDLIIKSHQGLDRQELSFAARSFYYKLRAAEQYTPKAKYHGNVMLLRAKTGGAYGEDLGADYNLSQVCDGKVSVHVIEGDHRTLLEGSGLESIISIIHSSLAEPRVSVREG
Procedure: FAS was incubated at varying concentrations and times at room temperature with 400 μM NADPH, 100 μM acetyl-CoA, and 20 μM malonyl-CoA (0.02 μCi [malonyl-2-^14C]-CoA) in buffer containing 50 mM MOPS (pH 6.8), 5 mM DTT, 1 mM EDTA, and 0.03% BSA in a total volume of 100 μL. The reaction was terminated by the addition of 10 μL of 10 N acetic acid, followed by the addition of 150 μL Microscint™-CAT. The mix was allowed to incubate overnight prior to data acquisition.
Inhibition of FAS by cerulenin. FAS (35 ng) was incubated for 90 minutes with cerulenin under conditions described in FIG. 1.
This method of the present invention permits radiometric detection of FAS activity via a gain of signal assay using [2-^14C]malonyl CoA as the radiolabel and partitioning of the radioactive products (^14C-labeled oleic acid and palmitic acid) into the PPSF (Microscint™-E), following acidification and addition of PPSF to the reaction mixture.
A typical 96-well density reaction is partitioned in the following manner: an enzyme assay inhibitor test mix (100 μL) containing enzyme, substrates, test compounds, and buffer components is incubated at room temperature to generate the fatty acid products. […] Enzyme activity is proportional to the radioactivity in the organic phase as determined by liquid scintillation counting. […]

Chain of farnesyl-diphosphate synthase (FPPS) (P14324 whole entry): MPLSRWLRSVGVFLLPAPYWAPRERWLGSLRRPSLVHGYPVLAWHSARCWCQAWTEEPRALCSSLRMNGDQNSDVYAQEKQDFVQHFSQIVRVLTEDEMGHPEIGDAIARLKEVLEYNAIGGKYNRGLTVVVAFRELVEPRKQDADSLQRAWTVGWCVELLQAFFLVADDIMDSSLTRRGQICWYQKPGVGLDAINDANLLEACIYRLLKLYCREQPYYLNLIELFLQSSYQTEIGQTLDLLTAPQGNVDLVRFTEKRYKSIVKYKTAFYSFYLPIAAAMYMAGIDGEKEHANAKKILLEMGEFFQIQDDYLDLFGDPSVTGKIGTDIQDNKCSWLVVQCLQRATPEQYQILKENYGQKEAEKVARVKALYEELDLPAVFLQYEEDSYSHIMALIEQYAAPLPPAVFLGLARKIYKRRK

For NCCCC(O)(P(=O)(O)O)P(=O)(O)O [alendronate], the “Inhibition of FPPS” value [1] was “Inhibition”.
In the case of C/C=C/C/C=C/CCC(=O)[C@H]1O[C@H]1C(N)=O [cerulenin], the “Inhibition of FAS” value [2] is reported as “Inhibition”.
